Assays:
[1] = system: Propionibacterium acnes; assay: Proliferation test with paper disc on agar plate (growth inhibition zone); type: cell-based, Propionibacterium acnes (JCM 6425); details: test substance (COSARTE-2G or glycerin) diluted to 40% by mass, 50 µL on paper disc; GAM agar, anaerobic, 48 hours
Description: (§1) As glyceryl glucoside, COSARTE-2G (manufactured by Toyo Sugar Refining Co., Ltd.) was diluted with ion-exchanged water such that COSARTE-2G was 40% by mass. Further, as a positive control, BD (Sensi-Disc Tetracycline 30, Antimicrobial Susceptibility Test Kit, manufactured by Nippon Becton Dickinson Company, Ltd.) was used. As a control, glycerin (manufactured by Nacalai Tesque Inc.) was diluted with ion-exchanged water to be 40% by mass.
Propionibacterium acnes (JCM 6425) was used as a representative strain of Propionibacterium acnes. A Propionibacterium acnes strain was added to GAM liquid medium and pre-cultured at 35°C under anaerobic conditions using an AnaeroPack.
(§2) GAM agar plates and BHI agar plates were prepared. Pre-cultured Propionibacterium acnes, Streptococcus mutans, and Staphylococcus aureus strains in the logarithmic growth phase were suspended in liquid medium to a concentration of 1 × 10^7 cells/mL, and 50 µL of this suspension was taken and spread onto each agar plate medium using a glass spreader.
(§3) Each test substance was sterilized by filtration using a membrane filter, and then 50 µL was impregnated into a sterilized paper disc. […]
(§4) The effect of inhibiting the proliferation of bacteria was determined by the presence or absence and size of the growth inhibition zone around the paper disc.

[2] = system: Streptococcus mutans; assay: as above; type: cell-based, Streptococcus mutans (JCM 5705); details: test substance (COSARTE-2G or glycerin) diluted to 40% by mass, 50 µL on paper disc; BHI agar, 48 hours
Description: as §1
Streptococcus mutans (JCM 5705) was used as a representative strain of Streptococcus mutans. A Streptococcus mutans strain was added to BHI liquid medium and pre-cultured at 35°C.
as §2
Each test substance was sterilized by filtration using a membrane filter, and then 50 µL was impregnated into a sterilized paper disc. A paper disk was aseptically placed on an agar plate medium, and cultured for 48 hours under conditions suitable for each bacterial strain.
as §4

[3] = system: Staphylococcus aureus; assay: as above; type: cell-based, Staphylococcus aureus (NBRC 13276); details: test substance (COSARTE-2G or glycerin) diluted to 40% by mass, 50 µL on paper disc; BHI agar, 48 hours
Description: as §1
Staphylococcus aureus (NBRC 13276) was used as a representative strain of Staphylococcus aureus. A Staphylococcus aureus strain was added to BHI liquid medium and pre-cultured at 37°C.
as §2, §3, §4

[4] = system: Lactobacillus crispatus; assay: Bacterial proliferation test (turbidity, absorbance at 600 nm); type: cell-based, Lactobacillus crispatus (ATCC 33820); details: C-mo 2G at final concentrations of 0.5%, 1.0%, 2.0% in medium; 1 culture day, 37°C, 5%CO2; n = 3
Description: (§5) C-mo2G (manufactured by Toyo Sugar Refining Co., Ltd.) was used as glyceryl glucoside. Furthermore, as a positive control, penicillin-streptomycin (manufactured by FUJIFILM Wako Pure Chemical Corporation, No. 168-23191) was used. Sterile water was used as a control.
(§6) Bacteria and media shown in Table 1 were used, and cultured under the conditions in Table 1.
(§7) As a GAM semi-fluid high layer medium, NO.05424 manufactured by NISSUI PHARMACEUTICAL CO., LTD. was used.
(§8) The number of culture days was set to such a number of days that bacterial proliferation could be visually confirmed in the control.
(§9) Each bacterium in which a frozen stock (15% (vol/vol) glycerin was added to the medium) was inoculated into 9 mL of the medium, and culture was started. After culturing until reaching the logarithmic growth phase, the medium was well stirred to make the turbidity uniform, and then the absorbance at 600 nm was measured. The medium was diluted with a medium such that the absorbance (600 nm) was 0.1, and this was used as a bacterial diluent.
(§10) C-mo 2G was added to the medium at final concentrations of 0.5%, 1.0%, and 2.0%. […]
(§11) 200 µL of the bacterial diluent was added to 9 mL of the medium containing the test substance, and culture was started. After culturing, the medium was well stirred to make the turbidity uniform, and then the absorbance (turbidity) at 600 nm was measured. […]

[5] = system: Lactobacillus iners; assay: as above; type: cell-based, Lactobacillus iners (ATCC 55195); details: C-mo 2G at final concentrations of 0.5%, 1.0%, 2.0% in medium; 3 culture days, 37°C, 5%CO2; n = 3
Description: as §5, §6, §7, §8, §9, §10, §11

[6] = system: Gardnerella vaginalis; assay: as above; type: cell-based, Gardnerella vaginalis (ATCC 14018); details: C-mo 2G at final concentrations of 0.5%, 1.0%, 2.0% in medium; 3 culture days, 37°C, 5%CO2; n = 3; effect concentration dependent
Description: as §5, §6, §7, §8, §9, §10, §11

[7] = system: Atopobium vaginae; assay: as above; type: cell-based, Atopobium vaginae (ATCC BAA-55); details: C-mo 2G at final concentrations of 0.5%, 1.0%, 2.0% in medium; 2 culture days, 37°C, anaerobic; n = 3; effect concentration dependent
Description: as §5, §6, §7, §8
An experiment was performed using Atopobium vaginae as a representative bacterium of the genus Atopobium.
as §9, with “diluent. […]” for “diluent.”
as §11

[8] = Primary skin irritation test; type: in vivo; details: rabbit
[9] = Repeated skin irritation test; details: in vivo
[10] = Skin sensitization test (intracutaneous Maximization method); type: in vivo; details: guinea pig intracutaneous Maximization method
[11] = Phototoxicity test; type: in vivo; details: guinea pig
[12] = Photosensitization test; details: in vivo
[13] = Eye irritation test; type: in vivo; details: rabbit
[14] = Mutagenicity test (in vitro)
[15] = Human patch test; type: in vivo
[16] = Water solubility; type: physicochemical
[17] = reported in Patent Literature 2; cited from earlier work
[18] = system: Escherichia coli; details: viable count after 24 hours or 48 hours exposure; Patent Literature 2; cited from earlier work
[19] = system: Staphylococcus aureus; details: viable count after 24 hours or 48 hours exposure; Patent Literature 2; cited from earlier work
[20] = system: Pseudomonas aeruginosa; details: viable count after 24 hours or 48 hours exposure; Patent Literature 2; cited from earlier work
[21] = system: Pseudomonas cepacia; details: viable count after 24 hours or 48 hours exposure; Patent Literature 2; cited from earlier work
[22] = system: Staphylococcus epidermidis; details: viable count after 24 hours or 48 hours exposure; Patent Literature 2; cited from earlier work
[23] = system: Corynebacterium minutissimum; details: viable count after 24 hours or 48 hours exposure; Patent Literature 2; cited from earlier work

Compound: OCC(O)CO [Glycerin, glycerin, reference compound]
- growth inhibition zone around the paper disc, Propionibacterium acnes [1]: same result as glyceryl glucoside
- growth inhibition zone around the paper disc, Streptococcus mutans [2]: same result as glyceryl glucoside
- growth inhibition zone around the paper disc, Staphylococcus aureus [3]: same result as glyceryl glucoside

Compound: glyceryl glucoside
- proliferation of Lactobacillus crispatus (number of bacteria, absorbance 600 nm) relative to control [4]: little change in the number
- proliferation of Lactobacillus iners (number of bacteria, absorbance 600 nm) relative to control [5]: increased
- proliferation of Gardnerella vaginalis (absorbance 600 nm) relative to control [6]: significantly inhibited
- proliferation of Atopobium vaginae (absorbance 600 nm) relative to control [7]: significantly inhibited
- growth inhibition zone around the paper disc, Propionibacterium acnes [1]: no growth inhibition zone
- growth inhibition zone around the paper disc, Streptococcus mutans [2]: no growth inhibition zone
- growth inhibition zone around the paper disc, Staphylococcus aureus [3]: no growth inhibition zone
- toxicity in primary skin irritation test [8]: no toxicity
- toxicity in repeated skin irritation test [9]: no toxicity
- toxicity in skin sensitization test [10]: no toxicity
- toxicity in phototoxicity test [11]: no toxicity
- toxicity in photosensitization test [12]: no toxicity
- toxicity in eye irritation test [13]: no toxicity
- toxicity in mutagenicity test [14]: no toxicity
- toxicity in human patch test [15]: no toxicity
- water solubility [16]: good

Compound: α-D-glucopyranosylglycerol
- skin irritation [17]: no skin irritation
- antimicrobial activity against Escherichia coli [18]: antimicrobial activity
- antimicrobial activity against Staphylococcus aureus [19]: antimicrobial activity
- antimicrobial activity against Pseudomonas aeruginosa [20]: antimicrobial activity
- antimicrobial activity against Pseudomonas cepacia [21]: antimicrobial activity
- antimicrobial activity against Staphylococcus epidermidis [22]: antimicrobial activity
- antimicrobial activity against Corynebacterium minutissimum [23]: antimicrobial activity
